# Experiment: Mono- and diester stability study (acid value after heat/reflux and pH variation)
# Type: physicochemical
# Details: before treatment; A.O.C.S. T.M. #Cd 3a-63
# Protocol: (§1) The following stability study was conducted to determine the structural stability of dimeric urethane compounds according to the present invention compared to mono- and diesters under conditions of pH and thermal variation. Because the decomposition products of the mono- and diesters are alcohol and acid, the degree of decomposition may be accurately determined by measuring the acid value. The measurable decomposition product of the urethane compound is alcohol, which is accurately measured by determining the hydroxyl value.
# III. Procedure for Determining Mono- or Diester Stability
# The following steps were performed on each ester sample:
# (2) Into three ground glass Erlenmeyer flasks, weigh a 20 g sample of the ester.
# (3) Into each flask, pipette 50 ml of a neutralized (to phenolpthalein end point) Solution of 70% Isopropanol in water. Boiling stones are added.
# (4) Connect flask A to a 4-5 ft. Reflux condenser and heat so that it refluxes 1 ft. High (to approximately 80-90° C.). After connecting flasks A, B and C, proceed to step (7).
# (5) Add 10% Aq. Hcl solution to adjust pH of solution in flask B to pH=2.5-3.5. See step (4).
# (6) Add 20% Aq. KOH Solution to adjust pH of solution in Flask C to pH=13-14. See step (4).
# (8) For each flash, A, B and C, disconnect condenser. Pour Alcoholic solution into wide diameter beaker (A, B and C). Add spin bar. […]
row,ACID V INITIAL,Compound
1,0.32 mg KOH/g,Diisopropyl dilinoleate [DID]
2,0.26 mg KOH/g,"CC(C)OC(=O)CCCCC(=O)OC(C)C [DIA, Diisopropyl adipate]"

# Experiment: Urethane stability study (hydroxyl value after heat/reflux and pH variation)
# Type: physicochemical
# Details: before treatment; A.O.C.S. hydroxyl value method
# Protocol: as §1
# IV. Procedure for Urethane Stability
# The following steps were performed on each urethane sample:
# (1) Run hydroxyl value test.
# (2) Follow steps 2-8 for mono- and diester (above).
# (3) Run hydroxyl value test on solution in beaker A.
# (4) Perform step 10, from above.
# (5) Run hydroxyl value test on solution in Beaker B and Beaker C.
# Under conditions of this study, that is,
# “A”: Product in alcoholic/water solution, heat
# “B”: Product in alcoholic/water solution, heat, pH=2.5-3.5
# “C”: Product in alcoholic/water solution, heat, pH=13-14
row,HYDROXYL V INITIAL,Compound
1,5.3 mg KOH/g,Isostearyl alcohol dimer with IPDI [Monoderm I-18]
2,16.1 mg KOH/g,Octyl dodecanol dimer with IPDI [Monoderm I-20]
3,7.3 mg KOH/g,Isocetyl alcohol dimer with IPDI [Monoderm I-16]

row,Compound,HYDROXYL V INITIAL
1,"CCCCC(CC)COC(=O)NCC1(C)CC(NC(=O)OCC(CC)CCCC)CC(C)(C)C1 (stereo not drawn) [Monoderm I-8, 2-ethyl hexanol dimer with IPDI]",10.3 mg KOH/g
